Measured values reported in patent US20050220865A1, “Compressed composition comprising magnesium salt” (priority 2004, published 2005).

What was measured:
[1] = cited from earlier work; for USP 27/NF22 Solubility: USP 27/NF22 solubility term
[2] = Storage stability of USP <711> dissolution profile at 40° C. and 75% relative humidity; assay type: physicochemical; details: FIG. 4; stored at 40° C. and 75% relative humidity up to 2 months; protected from moisture
Method: By “pharmaceutically acceptable storage conditions” is meant storage at 25° C. and 60% relative humidity (RH) in a tight, sealed container-enclosure system. The storage conditions employed herein (40° C. and 75% RH) in evaluating formulations are used in the pharmaceutical industry to conduct accelerated stability testing of formulations such that a period of 2 months under these conditions is generally accepted to equal a period of 1 year under pharmaceutically acceptable storage conditions (25° C. and 60% relative humidity).
(§1) USP 27/NF22 specification for magnesium oxide tablets is not less than 75% (O) of the labeled amount of MgO is dissolved in 45 minutes. Dissolution testing is performed using apparatus II with 900 mL of 0.1 N hydrochloric acid maintained at 37° C. and agitated at 75 rpm. Samples are withdrawn at after 45 minutes of testing. The amount of MgO dissolved is then determined using atomic absorption (AA) spectrophotometry at a wavelength of 285.2 nm using filtered portions of the solution under test, diluted with Dissolution Medium. A standard curve is generated using a magnesium standard solution of known concentration in the same medium.
The initial dissolution profile for each of the prior art and present formulations is determined as described herein. […] At monthly intervals, the dissolution profile of the formulations is determined again. […]

[3] = Magnesium oxide tablet monograph USP <711> dissolution; assay type: physicochemical; details: FIG. 5; binary mixture of heavy grade magnesium oxide, USP with excipient
Method: The following drawings are given by way of illustration only, and thus are not intended to limit the scope of the present invention. The USP27/NF22 monograph for magnesium oxide tablets specifies that the dissolution method is to be executed using the general conditions of chapter <711> with 900 mL of 0.1 N hydrochloric acid, a paddle rotation speed of 75 RPM, and a sampling timepoint of 45 minutes.
as §1

Row | Compound | USP 27/NF22 Solubility [1] | Solubility in Neutral Water [1] | dissolution of magnesium from pure magnesium oxide [2] | influence of excipient on dissolution of magnesium [3]
1 | [F-].[F-].[Mg+2] [MgF2] | Practically Insoluble | 0.0002 g/100 mL |  | 
2 | [O]=[Mg] [MgO, magnesium oxide, reference compound] | Practically Insoluble | 0.00062 g/100 mL | suitable dissolution | 
3 | O=C([O-])CC(O)(CC(=O)[O-])C(=O)[O-].[Na+].[Na+].[Na+] [sodium citrate] |  |  |  | decrease dissolution
4 | potassium phosphate |  |  |  | decrease dissolution
